# From PubChem BioAssay (NCI)
#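 Results reflect a 48-hour exposure of cells in 96-well plates to compound at five concentrations. Here, GI50 denotes the concentration required for 50% inhibition of growth. TGI denotes the concentration required for complete inhibition of growth.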
# Tests used:
# Assay in all cases: growth of human tumour cells (NCI), 48 h
# SK-MEL-5 melanoma = tested on: SK-MEL-5 melanoma
# HCT-15 colon = tested on: HCT-15 colon
# NCI-H23 lung = tested on: NCI-H23 lung
# NCI-H226 lung = tested on: NCI-H226 lung
# OVCAR-5 ovarian = tested on: OVCAR-5 ovarian
# 786-0 renal = tested on: 786-0 renal
# HCT-116 colon = tested on: HCT-116 colon
# SNB-75 CNS = tested on: SNB-75 CNS
# PC-3 prostate = tested on: PC-3 prostate
# DU-145 prostate = tested on: DU-145 prostate
SMILES,TGI (SK-MEL-5 melanoma) [µM],TGI (HCT-15 colon) [µM],TGI (NCI-H23 lung) [µM],TGI (NCI-H226 lung) [µM],TGI (OVCAR-5 ovarian) [µM],TGI (786-0 renal) [µM],TGI (HCT-116 colon) [µM],TGI (SNB-75 CNS) [µM],GI50 (SK-MEL-5 melanoma) [µM],GI50 (PC-3 prostate) [µM],TGI (PC-3 prostate) [µM],GI50 (HCT-15 colon) [µM],GI50 (NCI-H23 lung) [µM],GI50 (DU-145 prostate) [µM],TGI (DU-145 prostate) [µM],GI50 (OVCAR-5 ovarian) [µM],GI50 (786-0 renal) [µM],GI50 (HCT-116 colon) [µM],GI50 (SNB-75 CNS) [µM],GI50 (NCI-H226 lung) [µM]
CS(=O)(=O)N/N=C/CN1C(=O)c2ccccc2C1=O,> 100,> 100,> 100,> 100,> 100,> 100,> 100,> 100,–,–,–,–,–,–,–,–,–,–,–,–
CCCCOC(=O)C1C(c2ccc(Cl)cc2)NC(c2ccc(Cl)cc2)C(C(=O)OCCCC)S1(=O)=O (centres undefined),> 100,> 100,> 100,> 100,> 100,> 100,–,> 100,–,–,–,–,–,–,–,–,–,–,–,–
O=C(OCc1ccc2cccc(O)c2n1)N1CCN(C(=O)c2cc3cc(F)ccc3[nH]2)CC1,3.07,1.8,3.45,–,3.16,2.82,1.32,2.24,1.69,0.513,2.02,0.452,1.62,1.28,2.67,1.7,1.42,0.357,1.02,–
O=Cc1cc2c(cc1-c1c(C=O)ccc3c1OCO3)OCO2,> 10,> 10,> 10,–,–,> 10,> 10,> 10,–,–,> 10,–,–,–,> 10,–,–,–,–,–
O=c1nc2occc2cn1C1CC(O)C(CO)O1 (centres undefined),> 100,> 100,> 100,> 100,> 100,> 100,> 100,> 100,–,–,–,–,–,–,–,–,–,–,–,–
COc1ccc(NC(=O)CCc2cc(-c3ccc(O)c(OC)c3)nc(NC#N)n2)cc1,–,> 100,> 100,> 100,> 100,> 100,> 100,–,–,–,–,–,–,–,–,–,–,–,–,–
Cc1nnc(S(=O)(=O)c2ccc(N=Nc3c(N)nc(N)nc3N)cc2)s1,> 100,> 100,> 100,> 100,> 100,> 100,> 100,–,–,–,> 100,–,–,–,> 100,–,–,–,–,–
Cc1cc(Br)cc(C)c1NC(=O)C(=O)C(C(=O)c1ccc2ccccc2c1)C1OC(=O)c2ccccc21 (centres undefined),23.8,42.3,13.6,11.2,19.7,19.3,29.4,43.9,–,–,–,–,–,–,–,–,–,–,–,–
COC(=O)C1=C(c2ccc3c(c2)OCO3)O[C@H](c2cc(OC)c(OC)c(OC)c2)[C@H]1COC(C)=O,7.83,> 100,17.7,> 100,> 100,42.3,19.6,> 100,–,–,–,–,–,–,–,–,–,–,–,–
CCN(CC)CCOc1ccc(/C=C(\C#N)c2ccc(OCCN(CC)CC)cc2)cc1,15.9,30.8,42.6,> 78.4,> 66,25.5,21.9,47.8,–,–,–,–,–,–,> 100,–,–,–,–,–
O=C1CN=C(C[N+](=O)[O-])c2ccccc21,> 100,> 100,> 100,> 100,> 100,> 100,> 100,> 100,–,–,–,–,–,–,–,–,–,–,–,–
C=C(C)[C@@]12OC3(/C=C/C=C/CCCCC)O[C@@H]1[C@@H]1[C@@H]4O[C@]4(CO)[C@@H](O)[C@]4(O)C(=O)C(C)=C[C@H]4[C@@]1(O3)[C@H](C)[C@H]2OC(=O)c1ccccc1,1.86,2.9,8.12,3.21,8.62,2.53,3.33,–,< 0.01,1.46,3.3,1.42,2.84,0.105,2.11,4.43,1.23,1.65,–,1.68
C=C(F)C(=O)N1CCN(c2nc(OC[C@@H]3CCCN3C)nc3c2CCN(c2cccc4cccc(Cl)c24)C3)C[C@@H]1CC#N,3.06,2.06,1.58,–,2.56,2.09,1.88,2.67,1.63,0.855,2.44,0.56,< 0.01,1.04,2.87,0.485,0.769,0.562,1.17,–
COc1ccc(OC)c(NC(=O)C(=O)NNC(=O)c2sc(NNC(C)=O)nc2C)c1,> 100,> 100,68.8,> 100,> 100,> 100,> 100,–,–,–,–,–,–,–,–,–,–,–,–,–
CCOC(=O)/C=C/C(C(=O)/C=C/c1ccc(OC2CCCCO2)c(OC)c1)=C(O)\C=C\c1ccc(OC2CCCCO2)c(OC)c1 (centres undefined),16.5,12.6,18.7,34.7,74.5,20.3,4.76,–,4.44,3.85,> 100,3.59,5.9,7.01,42.6,7.81,4.96,2.09,–,12.9
O=C1OC(c2ccccc2)=N/C1=C/C=C/c1ccco1,> 100,> 100,> 100,–,> 100,> 100,–,–,–,–,–,–,–,–,–,–,–,–,–,–
COC(=O)C12C3C4C1C1C2C3C41C(=O)OC(C)(C)C (centres undefined),> 100,> 100,> 100,> 100,> 100,> 100,70.3,> 100,–,–,–,–,–,–,–,–,–,–,–,–
COC(=O)C1=C(C)N(NC(=O)c2ccccc2)C(C)(O)C12CCOC2=O (centres undefined),–,> 100,> 100,> 100,> 100,2.68,> 100,–,–,–,–,–,–,–,–,–,–,–,–,–
Cc1ccc(SC(C)/C=C/NNC2=NC(c3ccccc3)C(c3ccccc3)=NN2)cc1 (centres undefined),31.4,> 100,> 100,98.1,89.1,> 100,> 100,> 100,–,–,–,–,–,–,–,–,–,–,–,–
S=C(N/N=C/c1ccco1)NC12CC3CC(CC(C3)C1)C2,> 100,> 100,> 100,> 100,> 100,> 100,> 100,> 100,–,–,–,–,–,–,–,–,–,–,–,–
C=C(CCCCC)CN1CCCC1[C@@](C)(O)CC(=O)OCC (some centres undefined),> 100,> 100,> 100,> 100,> 100,> 100,> 100,> 100,–,–,–,–,–,–,–,–,–,–,–,–
O=C1c2ccccc2C(=O)C1(Cl)C1(S(=O)(=O)O)c2ccccc2-c2ccccc21,> 100,> 100,> 100,> 100,> 100,> 100,> 100,> 100,–,–,–,–,–,–,–,–,–,–,–,–
